In patent US20040106626A1, “6-Membered unsaturated heterocyclic compounds useful for selective inhibition of the coagulation cascade” (Pharmacia Corporation, priority 2001, published 2004):
Where a name gives a salt, the structure may show the parent alone.

Assays:
Assay type in all cases: biochemical
Human factor Xa = molecular target: T1, Human factor Xa (Homo sapiens, UniProt P00742); assay: Xa assay (chromogenic substrate S-2765); conditions: reported only as less than or greater than 30 uM; read-out: Factor Xa (II) IC50
T1 construct: purchased Enzyme Research Laboratories, South Bend Ind
Outline: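 Chromogenic readout: S-2765 hydrolysis (0.15 mM) by 0.3 nM human FXa was monitored at 405 nm after 60 min at room temperature, with a time-zero background read. Buffer: 50 mM Tris-HCl, pH 8.0, 100 mM NaCl, 0.1% BSA. Inhibition is relative to buffer-only controls.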

[1] = system: Normal human pooled plasma; assay: Prothrombin time (PT) clotting assay; conditions: concentration at which prothrombin time is prolonged by 2x normal, reported as less than or greater than 50 uM
Outline: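 Normal human pooled plasma incubated with 100 uM compound or saline, then thromboplastin (human tissue factor) added and clotting time recorded in a coagulation machine. Compounds exceeding 3× normal PT (11.0 s) are titrated to find the concentration doubling PT.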

[2] = molecular target: T2, recombinant soluble tissue factor and recombinant human factor VIIa (TF-VIIa) (Homo sapiens, UniProt P08709); assay: TF-VIIa assay (chromogenic substrate hydrolysis); conditions: reported only as less than or greater than 0.1 uM
T2 construct: conversion of coagulation factor VII to VIIa by factor Xa; purchased American Diagnostica, Greenwich CT; host or cells: soluble TF made in house in E. coli
Outline: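 Chromogenic read at OD405, compared with control for percent inhibition. Substrate N-methylsulfonyl-D-phe-gly-arg-p-nitroaniline at 0.4 mM is cleaved by recombinant human VIIa (2 nM) complexed with soluble TF (100 nM). Buffer: pH 8.0 Tris-HCl 50 mM, CaCl2 5 mM, NaCl 100 mM, BSA 0.1%.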

Human thrombin = molecular target: T3, Human thrombin (Homo sapiens, UniProt P00734); assay: Thrombin assay (chromogenic substrate); conditions: reported only as less than or greater than 30 uM; read-out: Thrombin (II) IC50
T3 construct: converts prothrombin (II) to thrombin (IIa); purchased Calbiochem, La Jolla, Calif
Outline: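 Percent inhibition derived by comparing OD405 nm of compound-treated and control samples. Thrombin cleavage of a p-nitroanilide chromogenic substrate provides the signal.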

T1 sequence (P00742 235-488 limits assumed): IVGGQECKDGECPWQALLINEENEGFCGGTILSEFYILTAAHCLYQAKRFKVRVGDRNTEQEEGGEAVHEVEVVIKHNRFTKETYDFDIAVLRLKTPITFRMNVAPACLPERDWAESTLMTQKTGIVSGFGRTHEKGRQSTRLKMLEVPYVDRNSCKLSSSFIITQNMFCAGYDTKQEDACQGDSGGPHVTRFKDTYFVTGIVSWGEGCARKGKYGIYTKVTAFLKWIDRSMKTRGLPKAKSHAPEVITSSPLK
T1 sequence (P00742 41-179 limits assumed): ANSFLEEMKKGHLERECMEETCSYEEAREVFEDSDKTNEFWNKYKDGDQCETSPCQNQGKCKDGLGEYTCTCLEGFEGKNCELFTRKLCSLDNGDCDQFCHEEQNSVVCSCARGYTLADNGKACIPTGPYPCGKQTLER
T2 sequence (P08709 213-466 limits assumed): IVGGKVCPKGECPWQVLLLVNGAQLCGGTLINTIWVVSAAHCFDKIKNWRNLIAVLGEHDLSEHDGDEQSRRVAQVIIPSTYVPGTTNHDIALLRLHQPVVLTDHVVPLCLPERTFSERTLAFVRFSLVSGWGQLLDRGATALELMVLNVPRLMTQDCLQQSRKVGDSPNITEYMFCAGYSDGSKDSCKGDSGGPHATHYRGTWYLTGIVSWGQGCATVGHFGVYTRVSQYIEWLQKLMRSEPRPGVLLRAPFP
T2 sequence (P08709 61-212 limits assumed): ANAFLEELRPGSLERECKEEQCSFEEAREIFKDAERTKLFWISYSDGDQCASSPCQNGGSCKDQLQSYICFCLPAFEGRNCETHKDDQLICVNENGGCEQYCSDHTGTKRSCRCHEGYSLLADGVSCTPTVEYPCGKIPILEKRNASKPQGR
T2 sequence (P13726 33-251 partner limits assumed): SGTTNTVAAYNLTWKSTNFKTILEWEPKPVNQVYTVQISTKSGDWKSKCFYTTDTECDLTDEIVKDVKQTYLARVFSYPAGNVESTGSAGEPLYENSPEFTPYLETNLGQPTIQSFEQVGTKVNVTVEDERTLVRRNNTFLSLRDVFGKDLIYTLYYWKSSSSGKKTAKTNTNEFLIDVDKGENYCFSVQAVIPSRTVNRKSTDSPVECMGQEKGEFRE

Row | SMILES | IC50 (Human factor Xa) [µM] | PT (Prothrombin time) 2xPT [1] [µM] | IC50 [2] [µM] | IC50 (Human thrombin) [µM]
1 | CC(C)Nc1ncc(-c2cc(N)cc(NS(=O)(=O)c3ccc(F)cc3)c2)n(CC(=O)NCc2ccc(C(=N)N)cc2)c1=O [Example 93] | > 30 | <50.0 | < 0.1 | > 30
2 | CC(C)Nc1ncc(-c2cc(N)cc(NS(=O)(=O)c3ccc(F)cc3F)c2)n(CC(=O)NCc2ccc(C(=N)N)cc2)c1=O [Example 94] | > 30 | <50.0 | < 0.1 | > 30
3 | CC(C)Nc1ncc(-c2cc(N)cc(NS(=O)(=O)CCc3ccccc3)c2)n(CC(=O)NCc2ccc(C(=N)N)cc2)c1=O [Example 95] | > 30 | <50.0 | < 0.1 | > 30
4 | CC(C)Nc1ncc(-c2cc(N)cc(NS(=O)(=O)c3ccccc3)c2)n(CC(=O)NCc2ccc(C(=N)N)cc2)c1=O [Example 96] | > 30 | <50.0 | < 0.1 | > 30
5 | CC(C)Nc1ncc(-c2cc(N)cc(NCc3ccccc3)c2)n(CC(=O)NCc2ccc(C(=N)N)cc2)c1=O [Example 98] | > 30 | <50.0 | < 0.1 | > 30
6 | CC(C)Nc1ncc(-c2cc(N)cc(NC(=O)Cc3ccccc3)c2)n(CC(=O)NCc2ccc(C(=N)N)cc2)c1=O [Example 99] | > 30 | <50.0 | < 0.1 | > 30
7 | CC(C)Nc1ncc(-c2cc(N)cc(NC(=O)C3CCCC3)c2)n(CC(=O)NCc2ccc(C(=N)N)cc2)c1=O [Example 100] | > 30 | <50.0 | < 0.1 | < 30
8 | CC(C)Nc1ncc(-c2cc(N)cc(NCCC(C)c3ccccc3)c2)n(CC(=O)NCc2ccc(C(=N)N)cc2)c1=O (stereo not shown) [Example 101] | > 30 | <50.0 | < 0.1 | < 30
9 | CC(C)CCNc1cc(N)cc(-c2cnc(NC(C)C)c(=O)n2CC(=O)NCc2ccc(C(=N)N)cc2)c1 [Example 102] | > 30 | <50.0 | < 0.1 | < 30
10 | CC(C)Nc1ncc(-c2cc(N)cc(NCc3ccsc3)c2)n(CC(=O)NCc2ccc(C(=N)N)cc2)c1=O [Example 103] | > 30 | <50.0 | < 0.1 | > 30
11 | CCCC(C)C(=O)Nc1cc(N)cc(-c2cnc(NC(C)C)c(=O)n2CC(=O)NCc2ccc(C(=N)N)cc2)c1 (stereo not shown) [Example 104] | > 30 | <50.0 | < 0.1 | < 30
12 | COc1cccc(CC(=O)Nc2cc(N)cc(-c3cnc(NC(C)C)c(=O)n3CC(=O)NCc3ccc(C(=N)N)cc3)c2)c1 [Example 105] | > 30 | <50.0 | < 0.1 | > 30
13 | CC(C)Nc1ncc(-c2cc(N)cc(NC(=O)CCc3ccccc3)c2)n(CC(=O)NCc2ccc(C(=N)N)cc2)c1=O [Example 106] | > 30 | <50.0 | < 0.1 | > 30
14 | CC(C)Nc1ncc(-c2cc(N)cc(NC(=O)CCC3CCCC3)c2)n(CC(=O)NCc2ccc(C(=N)N)cc2)c1=O [Example 107] | > 30 | <50.0 | < 0.1 | > 30
15 | CCCc1ccc(C(=O)Nc2cc(N)cc(-c3cnc(NC(C)C)c(=O)n3CC(=O)NCc3ccc(C(=N)N)cc3)c2)cc1 [Example 108] | > 30 | <50.0 | < 0.1 | < 30
16 | CC(C)Nc1ncc(-c2cc(N)cc(NC(=O)c3ccccc3)c2)n(CC(=O)NCc2ccc(C(=N)N)cc2)c1=O [Example 109] | > 30 | <50.0 | < 0.1 | < 30
17 | CC(C)Nc1ncc(-c2cc(N)cc(NCCc3ccccc3)c2)n(CC(=O)NCc2ccc(C(=N)N)cc2)c1=O [Example 110, N-{4-[amino(imino)methyl]benzyl}-2-[6-{3-amino-5-[(2-phenylethyl)amino]phenyl}-3-(isopropylamino)-2-oxopyrazin-1 (2H)-yl]acetamide trifluoroacetate] | > 30 | <50.0 | < 0.1 | > 30
18 | CC(C)Nc1ncc(-c2cc(N)cc(NCCCc3ccccc3)c2)n(CC(=O)NCc2ccc(C(=N)N)cc2)c1=O [Example 111] | > 30 | <50.0 | < 0.1 | > 30
19 | CC(C)CC(=O)Nc1cc(N)cc(-c2cnc(NC(C)C)c(=O)n2CC(=O)NCc2ccc(C(=N)N)cc2)c1 [Example 112] | > 30 | <50.0 | < 0.1 | < 30
20 | CC(C)Nc1ncc(-c2cc(N)cc(NC(=O)Nc3ccccc3)c2)n(CC(=O)NCc2ccc(C(=N)N)cc2)c1=O [Example 113] | > 30 | <50.0 | < 0.1 | > 30
21 | CC(C)Nc1ncc(-c2cc(N)cc(NC(=O)NCc3ccccc3)c2)n(CC(=O)NCc2ccc(C(=N)N)cc2)c1=O [Example 114] | > 30 | <50.0 | < 0.1 | > 30
22 | CC(C)Nc1ncc(-c2cc(N)cc(C(F)(F)F)c2)n(CC(=O)NCc2cc(O)c(C(=N)N)c(F)c2)c1=O.O=C(O)C(F)(F)F [Example 116] | < 30 | <50.0 | > 0.1 | > 30
23 | CC(C)Nc1ncc(-c2cc(N)cc(C(=O)O)c2)n(CC(=O)NCc2ccc(C(=N)N)cc2)c1=O.O=C(O)C(F)(F)F [Example 118] | > 30 | <50.0 | < 0.1 | > 30
24 | COCCNC(=O)c1cc(N)cc(-c2cnc(NC(C)C)c(=O)n2CC(=O)NCc2ccc(C(=N)N)cc2)c1.O=C(O)C(F)(F)F [Example 119] | > 30 | <50.0 | < 0.1 | < 30
25 | COc1cc(N)cc(-c2cnc(NC(C)C)c(=O)n2CC(=O)NCc2cc(O)c(C(=N)N)c(F)c2)c1.Cl.Cl [Example 123] | > 30 | <50.0 | < 0.1 | > 30
26 | CC(C)Nc1ncc(-c2cc(N)cc(C(=O)OC(C)C)c2)n(CC(=O)NCc2ccc(C(=N)N)cc2)c1=O.O=C(O)C(F)(F)F [Example 124, Isopropyl 3-amino-5-[1-[2-({4-[amino(imino)methyl]benzyl}amino)-2-oxoethyl]-5-(isopropylamino)-6-oxo-1,6-dihydropyrazin-2-yl]benzoate] | > 30 | <50.0 | < 0.1 | > 30
27 | CC[C@H](C)NC(=O)c1cc(N)cc(-c2cnc(NC(C)C)c(=O)n2CC(=O)NCc2ccc(C(=N)N)cc2)c1.O=C(O)C(F)(F)F [Example 127] | > 30 | <50.0 | < 0.1 | < 30
28 | CCCC(C)C(=O)Nc1cc(N)cc(-c2cnc(NC(C)C)c(=O)n2CC(=O)NCc2ccc(C(=N)N)cc2)c1.O=C(O)C(F)(F)F.O=C(O)C(F)(F)F (stereo not shown) [Example 128] | > 30 | <50.0 | < 0.1 | > 30
